The text below walks through data of ChEMBL document CHEMBL3763143, “Novel morpholine scaffolds as selective dopamine (DA) D3 receptor antagonists” (Bioorg Med Chem Lett, 2016).

Calls of active or inactive are those of the source. No cut-off for these calls is given here.

For series [1], the target named is Dopamine receptor D2 and D3 (Rattus norvegicus) (UniProt P19020+P61169). Kind of series: Selectivity ratio of Ki for rat brain dopamine D2 receptor to Ki for rat brain dopamine D3 receptor.
Chain of Dopamine receptor D2 and D3 (Rattus norvegicus) (P19020 whole entry, looked up): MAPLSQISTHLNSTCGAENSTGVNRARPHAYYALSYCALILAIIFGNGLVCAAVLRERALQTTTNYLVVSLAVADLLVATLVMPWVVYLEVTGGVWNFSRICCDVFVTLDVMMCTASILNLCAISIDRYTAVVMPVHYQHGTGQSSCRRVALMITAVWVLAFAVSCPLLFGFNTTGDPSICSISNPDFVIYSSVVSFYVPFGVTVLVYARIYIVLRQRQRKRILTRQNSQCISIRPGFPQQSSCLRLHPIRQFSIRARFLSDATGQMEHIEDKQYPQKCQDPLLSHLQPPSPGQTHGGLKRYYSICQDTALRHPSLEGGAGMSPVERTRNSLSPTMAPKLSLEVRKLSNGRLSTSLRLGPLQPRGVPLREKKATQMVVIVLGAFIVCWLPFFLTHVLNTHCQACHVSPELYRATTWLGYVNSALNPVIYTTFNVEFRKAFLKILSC
Chain of Dopamine receptor D2 and D3 (Rattus norvegicus) (P61169 whole entry, looked up): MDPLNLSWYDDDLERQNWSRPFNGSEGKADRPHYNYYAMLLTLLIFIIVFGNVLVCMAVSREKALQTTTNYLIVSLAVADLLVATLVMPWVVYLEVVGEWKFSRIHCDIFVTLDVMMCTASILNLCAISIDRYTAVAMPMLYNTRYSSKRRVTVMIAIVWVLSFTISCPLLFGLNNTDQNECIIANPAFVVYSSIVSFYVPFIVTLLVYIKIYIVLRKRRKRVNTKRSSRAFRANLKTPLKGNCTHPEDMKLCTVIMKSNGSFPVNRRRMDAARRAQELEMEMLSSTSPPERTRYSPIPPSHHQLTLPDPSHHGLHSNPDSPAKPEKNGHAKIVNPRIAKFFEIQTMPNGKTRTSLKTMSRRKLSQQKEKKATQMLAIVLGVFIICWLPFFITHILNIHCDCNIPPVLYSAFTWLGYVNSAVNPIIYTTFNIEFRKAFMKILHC
Series [2] deals with D(3) dopamine receptor (Rattus norvegicus, UniProt P19020).
Chain of D(3) dopamine receptor (Rattus norvegicus, UniProt P19020) (P19020 whole entry): as the sequence (P19020 whole entry, looked up) above
Description: Displacement of [125I]-7-OH-PIPAT from rat brain dopamine D3 receptor after 45 mins by microplate scintillation counting analysis
The target of series [3] is T1, D(3) dopamine receptor (Homo sapiens, UniProt P35462). Kind of series: Agonist activity at human dopamine D3 receptor expressed in CHO cells after 90 mins by [35S]-GTPgamma S assay. The series is classed as cell-based.
T1 sequence (P35462 whole entry): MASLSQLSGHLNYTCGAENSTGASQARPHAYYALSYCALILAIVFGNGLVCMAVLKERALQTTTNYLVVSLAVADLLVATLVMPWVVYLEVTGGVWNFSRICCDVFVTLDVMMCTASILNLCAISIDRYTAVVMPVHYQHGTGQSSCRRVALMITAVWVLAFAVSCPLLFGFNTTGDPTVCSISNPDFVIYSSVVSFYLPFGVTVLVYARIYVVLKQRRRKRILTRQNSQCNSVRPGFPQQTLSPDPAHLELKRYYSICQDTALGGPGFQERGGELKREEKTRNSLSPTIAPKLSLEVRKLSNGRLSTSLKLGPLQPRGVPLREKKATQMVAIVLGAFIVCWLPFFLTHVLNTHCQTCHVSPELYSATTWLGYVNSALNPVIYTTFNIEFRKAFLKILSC
Series [4] addresses T1, D(3) dopamine receptor. Kind of series: Antagonist activity at human dopamine D3 receptor expressed in CHO cells after 90 mins by [35S]-GTPgamma S assay. The series is classed as cell-based.
Series [5] is described as follows: Fraction unbound in portal vein-cannulated rat blood. The series is classed as ADME, tissue-based.
Series [6] is described as follows: Half life in portal vein-cannulated rat. The series is classed as ADME, organism-based. As to conditions: in vivo.
Series [7] concerns the target T2, Cytochrome P450 3A4 (Homo sapiens, UniProt P08684). As to the kind of experiment: Inhibition of human CYP3A4 expressed in bactosome using DBOMF as substrate. The series is classed as ADME.
A short description of series [8]: Volume of distribution at steady state in portal vein-cannulated rat. The series is classed as ADME, organism-based. The note with it: in vivo, read-out: Vdss.
Series [9] in a line: Bioavailability in portal vein-cannulated rat. The series is classed as ADME, organism-based. As to conditions: in vivo.
Another series deals with Cytochrome P450 2C9 (Homo sapiens, UniProt P11712). Kind of series: Inhibition of human CYP2C9 expressed in bactosome. The series is classed as ADME.
Chain of Cytochrome P450 2C9 (P11712 whole entry): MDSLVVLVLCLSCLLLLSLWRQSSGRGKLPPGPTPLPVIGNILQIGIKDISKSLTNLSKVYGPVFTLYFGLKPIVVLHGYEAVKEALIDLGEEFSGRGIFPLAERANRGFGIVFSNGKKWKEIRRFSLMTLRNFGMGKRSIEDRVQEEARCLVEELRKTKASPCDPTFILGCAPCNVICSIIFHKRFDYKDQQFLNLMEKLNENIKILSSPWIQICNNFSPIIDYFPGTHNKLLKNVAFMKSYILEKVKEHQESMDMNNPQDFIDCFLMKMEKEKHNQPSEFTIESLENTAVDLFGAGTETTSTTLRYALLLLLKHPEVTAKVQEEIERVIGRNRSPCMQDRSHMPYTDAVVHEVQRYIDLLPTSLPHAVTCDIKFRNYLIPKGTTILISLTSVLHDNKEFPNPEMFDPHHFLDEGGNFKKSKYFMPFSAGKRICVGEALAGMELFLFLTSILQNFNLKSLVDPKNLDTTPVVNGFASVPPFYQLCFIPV
Series [10] addresses T2, Cytochrome P450 3A4. Kind of series: Inhibition of human CYP3A4 expressed in bactosome using 7BQ as substrate. The series is classed as ADME.
Series [11] is described as follows: Fraction absorbed in portal vein-cannulated rat. The series is classed as ADME, organism-based. As to conditions: in vivo.
A short description of series [12]: Blood clearance in portal vein-cannulated rat. The series is classed as ADME, organism-based. The note with it: whole blood.
The nature of series [13]: Hepatic extraction ratio in portal vein-cannulated rat. The series is classed as ADME, organism-based. The note with it: in vivo, read-out: ERH.
The nature of series [14]: Intrinsic clearance in rat liver microsomes assessed per mg of protein. The series is classed as ADME. The note with it: read-out: CLH.
Another series addresses T3, Cytochrome P450 1A2 (Homo sapiens, UniProt P05177).
T3 sequence (P05177 whole entry): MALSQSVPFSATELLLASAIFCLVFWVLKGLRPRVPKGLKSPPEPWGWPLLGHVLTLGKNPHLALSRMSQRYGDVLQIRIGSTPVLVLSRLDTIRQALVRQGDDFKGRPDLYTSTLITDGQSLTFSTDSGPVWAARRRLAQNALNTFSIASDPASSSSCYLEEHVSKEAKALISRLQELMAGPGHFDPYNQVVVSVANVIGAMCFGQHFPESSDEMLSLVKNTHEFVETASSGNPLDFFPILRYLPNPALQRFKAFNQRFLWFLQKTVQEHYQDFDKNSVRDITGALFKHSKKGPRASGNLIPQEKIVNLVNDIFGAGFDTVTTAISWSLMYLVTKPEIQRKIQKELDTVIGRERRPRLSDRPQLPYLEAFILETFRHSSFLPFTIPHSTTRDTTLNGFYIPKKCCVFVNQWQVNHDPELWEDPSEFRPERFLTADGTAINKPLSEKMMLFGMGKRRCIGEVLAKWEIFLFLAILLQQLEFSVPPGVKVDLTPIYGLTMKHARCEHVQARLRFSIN
Kind of series: Inhibition of human CYP1A2 expressed in bactosome. The series is classed as ADME.

In a further series the target is Cytochrome P450 2C19 (Homo sapiens, UniProt P33261). As to the kind of experiment: Inhibition of human CYP2C19 expressed in bactosome. The series is classed as ADME.
Chain of Cytochrome P450 2C19 (P33261 whole entry): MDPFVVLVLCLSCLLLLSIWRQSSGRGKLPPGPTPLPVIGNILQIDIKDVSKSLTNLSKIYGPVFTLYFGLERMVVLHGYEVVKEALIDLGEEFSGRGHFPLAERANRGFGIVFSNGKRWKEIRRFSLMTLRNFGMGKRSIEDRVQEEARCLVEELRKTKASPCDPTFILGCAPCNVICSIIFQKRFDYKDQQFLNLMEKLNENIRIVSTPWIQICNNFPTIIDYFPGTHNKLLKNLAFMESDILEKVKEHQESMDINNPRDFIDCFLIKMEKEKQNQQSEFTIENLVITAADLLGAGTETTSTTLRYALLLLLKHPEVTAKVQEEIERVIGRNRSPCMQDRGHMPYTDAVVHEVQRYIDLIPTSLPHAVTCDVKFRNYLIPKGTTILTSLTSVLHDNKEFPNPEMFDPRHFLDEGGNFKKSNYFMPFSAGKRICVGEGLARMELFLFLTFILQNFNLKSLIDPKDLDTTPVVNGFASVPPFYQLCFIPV
The target in series [15] is Voltage-gated inwardly rectifying potassium channel KCNH2 (Homo sapiens, UniProt Q12809). Kind of series: Displacement of [3H]-dofetilide from human ERG potassium channel by scintillation proximity assay.
Chain of Voltage-gated inwardly rectifying potassium channel KCNH2 (Q12809 whole entry): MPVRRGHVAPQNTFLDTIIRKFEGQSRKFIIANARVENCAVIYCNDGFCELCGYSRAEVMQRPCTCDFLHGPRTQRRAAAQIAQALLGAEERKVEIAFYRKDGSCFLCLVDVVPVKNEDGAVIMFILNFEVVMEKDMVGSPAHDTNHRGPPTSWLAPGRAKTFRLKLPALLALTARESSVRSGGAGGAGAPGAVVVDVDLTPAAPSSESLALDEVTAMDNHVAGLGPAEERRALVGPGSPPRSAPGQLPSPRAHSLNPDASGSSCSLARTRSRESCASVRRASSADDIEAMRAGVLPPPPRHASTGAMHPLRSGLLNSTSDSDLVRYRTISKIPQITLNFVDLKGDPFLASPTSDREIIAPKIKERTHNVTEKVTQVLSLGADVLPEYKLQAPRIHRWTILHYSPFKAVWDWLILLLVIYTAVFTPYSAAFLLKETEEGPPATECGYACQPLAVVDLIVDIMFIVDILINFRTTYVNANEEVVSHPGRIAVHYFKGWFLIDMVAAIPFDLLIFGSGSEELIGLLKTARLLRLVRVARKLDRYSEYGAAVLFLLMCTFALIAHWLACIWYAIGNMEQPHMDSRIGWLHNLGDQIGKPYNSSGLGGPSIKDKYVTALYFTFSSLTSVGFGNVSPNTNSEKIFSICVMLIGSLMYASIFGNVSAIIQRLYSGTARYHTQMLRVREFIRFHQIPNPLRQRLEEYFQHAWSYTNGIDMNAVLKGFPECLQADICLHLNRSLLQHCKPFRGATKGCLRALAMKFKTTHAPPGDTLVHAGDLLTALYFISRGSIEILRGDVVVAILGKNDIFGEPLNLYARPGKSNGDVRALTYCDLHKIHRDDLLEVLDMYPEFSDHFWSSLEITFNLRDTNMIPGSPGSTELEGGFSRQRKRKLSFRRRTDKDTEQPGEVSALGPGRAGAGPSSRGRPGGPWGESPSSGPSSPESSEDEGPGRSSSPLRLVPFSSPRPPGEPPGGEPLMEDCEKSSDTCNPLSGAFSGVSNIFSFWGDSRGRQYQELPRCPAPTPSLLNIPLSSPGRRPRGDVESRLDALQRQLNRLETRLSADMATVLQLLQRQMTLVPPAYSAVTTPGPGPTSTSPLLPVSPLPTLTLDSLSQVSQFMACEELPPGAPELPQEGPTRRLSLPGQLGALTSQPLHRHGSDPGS
Series [16] can be described thus: Fraction unbound in portal vein-cannulated rat brain. The series is classed as ADME, tissue-based.
Series [17] can be described thus: Intrinsic clearance in human liver microsomes assessed per mg of protein. The series is classed as ADME. As to conditions: read-out: CLH.
The target in the next series is Cytochrome P450 2D6 (Homo sapiens, UniProt P10635). Kind of series: Inhibition of human CYP2D6 expressed in bactosome. The series is classed as ADME.
Chain of Cytochrome P450 2D6 (P10635 whole entry): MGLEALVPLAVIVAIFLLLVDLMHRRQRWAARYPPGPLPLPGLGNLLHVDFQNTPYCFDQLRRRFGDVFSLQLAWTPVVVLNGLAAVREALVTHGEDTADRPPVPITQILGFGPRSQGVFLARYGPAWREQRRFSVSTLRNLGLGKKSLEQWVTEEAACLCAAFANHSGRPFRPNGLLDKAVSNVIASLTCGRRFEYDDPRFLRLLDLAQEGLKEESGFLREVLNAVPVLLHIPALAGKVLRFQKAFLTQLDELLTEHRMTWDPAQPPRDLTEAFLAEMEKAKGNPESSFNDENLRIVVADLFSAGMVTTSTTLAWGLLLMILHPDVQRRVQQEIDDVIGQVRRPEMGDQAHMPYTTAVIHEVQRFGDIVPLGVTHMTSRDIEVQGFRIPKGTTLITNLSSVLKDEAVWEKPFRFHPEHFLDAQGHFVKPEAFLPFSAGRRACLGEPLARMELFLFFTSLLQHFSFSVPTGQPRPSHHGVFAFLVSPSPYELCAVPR
Series [18] has as its target T4, Muscarinic acetylcholine receptor M1 (Homo sapiens, UniProt P11229).
T4 sequence (P11229 whole entry): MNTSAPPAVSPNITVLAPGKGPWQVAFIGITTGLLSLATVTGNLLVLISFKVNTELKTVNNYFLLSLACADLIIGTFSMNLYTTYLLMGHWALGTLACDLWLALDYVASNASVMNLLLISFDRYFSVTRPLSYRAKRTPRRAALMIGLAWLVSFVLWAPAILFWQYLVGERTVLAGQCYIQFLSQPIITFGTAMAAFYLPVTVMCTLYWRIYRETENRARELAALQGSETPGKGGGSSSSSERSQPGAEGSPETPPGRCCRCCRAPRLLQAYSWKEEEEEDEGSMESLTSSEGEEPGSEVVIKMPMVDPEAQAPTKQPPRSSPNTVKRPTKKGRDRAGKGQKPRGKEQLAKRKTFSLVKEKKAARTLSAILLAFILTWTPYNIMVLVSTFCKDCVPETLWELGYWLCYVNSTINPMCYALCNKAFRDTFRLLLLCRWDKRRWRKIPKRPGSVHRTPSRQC
Kind of series: Antagonist activity at muscarinic M1 receptor (unknown origin).

The next series concerns the target D(1A) dopamine receptor (Homo sapiens, UniProt P21728). Kind of series: Binding affinity to dopamine D1 receptor (unknown origin).
For series [19], the target named is T5, D(4) dopamine receptor (Homo sapiens) (UniProt P21917).
T5 sequence (whole entry): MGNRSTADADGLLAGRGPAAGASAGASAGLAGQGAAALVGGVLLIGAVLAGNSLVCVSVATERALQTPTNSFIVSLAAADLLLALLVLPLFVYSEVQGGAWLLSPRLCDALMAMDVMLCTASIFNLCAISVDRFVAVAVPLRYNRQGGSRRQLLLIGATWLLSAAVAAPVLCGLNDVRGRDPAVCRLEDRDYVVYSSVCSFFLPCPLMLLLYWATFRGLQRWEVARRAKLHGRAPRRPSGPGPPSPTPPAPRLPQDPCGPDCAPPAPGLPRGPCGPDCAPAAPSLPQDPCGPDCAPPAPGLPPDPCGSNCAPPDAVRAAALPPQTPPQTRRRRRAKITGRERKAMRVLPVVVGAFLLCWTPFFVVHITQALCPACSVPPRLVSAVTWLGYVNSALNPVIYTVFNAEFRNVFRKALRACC
As to the kind of experiment: (§1) Binding affinity to dopamine D4 receptor (unknown origin).

Series [20] concerns the target Muscarinic acetylcholine receptor M3 (Homo sapiens, UniProt P20309). As to the kind of experiment: Binding affinity to muscarinic M3 receptor (unknown origin).
For another series, the target named is T6, D(4) dopamine receptor (Homo sapiens, UniProt P21917).
T6 sequence (P21917 whole entry): T5 sequence (whole entry)
The series is described as §1.

T2 sequence (P08684 whole entry): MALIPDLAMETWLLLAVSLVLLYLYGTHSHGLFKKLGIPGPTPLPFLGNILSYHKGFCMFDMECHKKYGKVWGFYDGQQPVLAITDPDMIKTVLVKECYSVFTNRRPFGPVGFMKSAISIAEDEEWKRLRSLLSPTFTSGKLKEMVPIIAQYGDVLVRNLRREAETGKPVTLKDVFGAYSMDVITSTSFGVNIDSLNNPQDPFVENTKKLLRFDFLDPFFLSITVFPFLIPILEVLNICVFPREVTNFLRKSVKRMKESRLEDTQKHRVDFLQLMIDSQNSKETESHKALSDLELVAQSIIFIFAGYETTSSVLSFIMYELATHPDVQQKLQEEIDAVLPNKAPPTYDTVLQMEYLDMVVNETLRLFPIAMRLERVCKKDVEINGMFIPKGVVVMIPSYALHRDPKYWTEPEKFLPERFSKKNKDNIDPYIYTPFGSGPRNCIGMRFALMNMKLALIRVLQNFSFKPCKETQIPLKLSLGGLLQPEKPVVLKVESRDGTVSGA
Chain of D(1A) dopamine receptor (P21728 whole entry): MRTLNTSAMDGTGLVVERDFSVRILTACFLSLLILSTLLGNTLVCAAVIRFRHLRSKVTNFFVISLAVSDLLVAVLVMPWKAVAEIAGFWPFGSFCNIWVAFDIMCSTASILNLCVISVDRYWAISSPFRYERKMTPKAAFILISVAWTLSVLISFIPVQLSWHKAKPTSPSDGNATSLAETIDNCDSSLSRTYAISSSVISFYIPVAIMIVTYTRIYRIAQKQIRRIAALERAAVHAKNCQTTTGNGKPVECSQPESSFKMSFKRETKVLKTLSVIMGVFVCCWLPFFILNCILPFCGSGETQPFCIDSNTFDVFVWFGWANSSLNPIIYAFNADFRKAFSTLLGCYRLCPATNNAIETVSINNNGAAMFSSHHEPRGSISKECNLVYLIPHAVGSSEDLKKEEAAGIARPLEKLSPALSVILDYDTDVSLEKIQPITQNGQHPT

Turning to `Cn1c(SCCCN2CCOC(c3ccc(C(F)(F)F)cc3)C2)nnc1C1CCCCC1` (racemic), the Ratio Ki in series [1] was determined as 200. In addition, the Ki on D(3) dopamine receptor [2] was 0.0398 µM; on D(3) dopamine receptor [3], greater than 10 µM; at D(3) dopamine receptor [4] it was 0.02 µM.

As for `Cn1c(SCCCN2CCOC(c3ccc(C(F)(F)F)cc3)C2)nnc1-c1ccc(-c2ncco2)cc1` (racemic), the Ratio Ki in [1] turned out to be 300.

Consider `Cc1ncoc1-c1nnc(SCCCN2CCOC(c3ccc(F)cc3)C2)n1C` (stereo in doubt; 7) [listing 1 of 2 here], for which the figures for the fraction unbound in [5] and in series [16] were 0.17 and greater than 0.5, respectively. The compound also had a half-life in series [6] of 0.8 h. The IC50 against Cytochrome P450 3A4 [7], on Cytochrome P450 2C9, against Cytochrome P450 3A4 [10], against Cytochrome P450 1A2, against Cytochrome P450 2C19 and against Cytochrome P450 2D6 was greater than 30 µM in each case. For the same compound, the Vd in [8] was found to be 2.61 L/kg. For the same compound, the bioavailability in [9] came out at 100%. The compound also displayed a Fa in series [11] of 100%. Moreover, the Ki at D(3) dopamine receptor [2] is 0.251 µM; in [15] it was 3.16 µM; in series [18], 3.16 µM. Further, in [12], the clearance came to 2.4 L/h/kg. Also, in [13], the hepatic extraction ratio is 0.1. Further, the microsomal CLint in series [14] was less than 9 µL/min/mg; in [17], 21.7 µL/min/mg.

Turning to `Cc1ncoc1-c1nnc(SCCCN2CCOC(c3ccc(F)cc3)C2)n1C` (stereo in doubt; 7) [listing 2 of 2 here], the result (at D(1A) dopamine receptor; in series [19]; in series [20]) was inactive.

Regarding `Cc1ncoc1-c1nnc(SCCCN2CCOC(c3ccc(C(F)(F)F)cc3)C2)n1C` (stereo in doubt; 9), the fraction unbound was 0.062 in series [5] and 0.071 in series [16]. Besides, the Ki was greater than 100 µM at D(1A) dopamine receptor; greater than 100 µM on D(4) dopamine receptor; 0.0501 µM at D(3) dopamine receptor [2]; 3.16 µM in series [15]; 1 µM in series [18]; 1 µM in series [20]. In series [6], this compound gave a half-life of 3.5 h. The half-maximal inhibitory concentration (IC50) on Cytochrome P450 3A4 [7], at Cytochrome P450 2C9, at Cytochrome P450 3A4 [10], at Cytochrome P450 1A2, against Cytochrome P450 2C19 and against Cytochrome P450 2D6 was greater than 6 µM each time. In series [8], the Vd was 2.5 L/kg. Further, in [9], the bioavailability worked out at 58%. The compound also came in with a Fa in series [11] of 63%. The same compound yielded a clearance in [12] of 0.81 L/h/kg. Besides, the microsomal CLint in series [17] stood at 40 µL/min/mg.
